These results are taken from US8212024B2, “Crystalline sodium salt of cephalosporin antibiotic” (Orchid Chemicals & Pharmaceuticals Ltd., priority 2005, dated 2012).

What all share (type): physicochemical
Data set [1] is described as follows: Hygroscopicity observation. From the text:
Apart from the conventional formulation that are described the Ceftiofur sodium formulation may also contain chelating agent like ethylene diamine tetraacetic acid (EDTA) or a buffer like sodium citrate along with or with out conventional excipient. The pharmaceutical composition may also contain amorphous Ceftiofur sodium along with crystalline Ceftiofur sodium.

Data set [2] in a line: Comparison of physical characteristics: tapped bulk density. The source says:
The following Table provides a comparison of physical characteristics of amorphous and crystalline Ceftiofur Sodium. From this table it is evident that the crystalline Ceftiofur Sodium has better physical characteristics than amorphous material. [table]

The nature of data set [3]: Stability at 40 ± 2° C. & 75 ± 5% RH. Conditions: for Assay: in % (unit assumed). The source says:
(§1) The following Tables (Table 2 & 3) provide stability data of crystalline Ceftiofur Sodium prepared according to this invention. From this it table it is evident that the crystalline Ceftiofur Sodium prepared according this invention is a very stable and a highly pure material, which is clearly indicated by total RS (Related substances) analysis & the stability data. [table]

The nature of data set [4]: Stability at 25 ± 2° C. & 60 ± 5% RH. The conditions noted are these: for Assay: in % (unit assumed).
Description: as §1

As for `CO/N=C(\C(=O)NC1C(=O)N2C(C(=O)[O-])=C(CSC(=O)c3ccco3)CSC12)c1csc(N)n1.[Na+]` (centres unmarked) [Amorphous Ceftiofur sodium, Ceftiofur sodium, reference compound], the Hygroscopic nature entry in data set [1] was “highly hygroscopic”. The “Tapped Bulk density” value in data set [2] was 0.5 g/mL.

`CO/N=C(\C(=O)N[C@@H]1C(=O)N2C(C(=O)[O-])=C(CSC(=O)c3ccco3)CS[C@H]12)c1csc(N)n1.[Na+]` [Ceftiofur sodium]: the Hygroscopic nature entry in data set [1] was “non-hygroscopic”.

As to `CO/N=C(\C(=O)NC1C(=O)N2C(C(=O)[O-])=C(CSC(=O)c3ccco3)CSC12)c1csc(N)n1.[Na+]` (centres unmarked) [Crystalline Ceftiofur sodium, Ceftiofur sodium], the Total RS (Related substances) in data set [3] (2 month) stood at 0.93%; in data set [3] (15 days) it was 0.78%; in data set [3] (Initial), 0.61%; in data set [4] (1 month), 0.75%; in data set [4] (2 month), 0.78%; in data set [4] (Initial) it was 0.61%. Further, the Assay is 100.61 in data set [3] (2 month); 100.64 in data set [3] (15 days); 101.25 in data set [3] (Initial); 101.18 in data set [4] (1 month); 100.31 in data set [4] (2 month); 101.25 in data set [4] (Initial). Moreover, the Hygroscopic nature entry in data set [1] is reported as “non-hygroscopic”. In addition, the “Tapped Bulk density” value in data set [2] was found to be 0.8 g/mL.
